Legend:
p53 = test: Immunoblotting kinetic analysis of MDM2 and p53; type: cell-based, human; settings: 10 μM; HCT116 p53+/+ cells
Method: The cells were harvested, washed with cold PBS, and lysed with a radio-immunoprecipitation assay (RIPA) buffer. The cell lysate was centrifuged at 4° C. and 13,000 rpm for 20 minutes, and the supernatant was collected. The protein amount of the lysate was quantified using a bicinchoninic acid (BCA) protein assay kit (Pierce Inc., USA). The supernatant of the cell lysate was loaded on 10% sodium dodecyl sulfate-polyacrylamide gel electrophoresis (SDS-PAGE) to separate proteins, which were transferred to a polyvinylidene fluoride (PVDF) membrane, and the membrane was treated with 5% skim milk in tris-buffered saline with Tween® 20 (TBS-T) buffer (room temperature), and after one hour, washed with TBS-T buffer (2×) for one minute. After treatment with primary antibodies (specific primary antibodies) (p53, MDM2, or vinculin), the membrane was incubated overnight at 4° C. The membrane was washed with TBS-T for 10 minutes (5×), treated with horseradish peroxidase (HRP)-conjugated secondary antibodies (room temperature, 1 h), and then washed with TBS-T for 10 minutes (5×) and analyzed using a LAS 3000 luminescent image analyzer (Fujifilm Co., LTD., Japan).

HCT116 p53+/+ cells = test: WST-8 cell viability assay in HCT116 p53+/+ cells; type: cell-based, human; settings: 0, 5, 10, 15, 20 μM, 12 to 24 hours
Method: First, HCT116 p53^+/+ cells were cultured in a thermos-hygrostat incubator at 37° C., 5% CO2 in DMEM containing 10% FBS and 1% Pen-Step.
For a WST-8 cell viability assay, the HCT116 p53+/+ cells were seeded at a density of 2×10^4 cells/well in […] culture medium in a 96-well plate and cultured for 24 hours. […] After culturing at 37° C. for 12 to 24 hours, WST-8 reagent (Abcam Inc., UK) was added to each well, and culture was performed for 30 minutes. The absorbance at […] was measured using a microplate reader (PerkinElmer Inc., USA).

HCT116 cells = test: In vivo anticancer effect in HCT116 xenografted mice; settings: 76.9 nmol/100 μl saline i.v., once every two days, five times; 14 days
Method: Body weight and tumor volume of each group were measured every 0, 2, 4, 6, 8, 10, 12, and 14 days.

[1] = Biodistribution of Cy5.5-labeled SdPN in xenografted mice (fluorescence, IVIS)
Method: In order to verify the tumor specificity of the SdPN according to the present invention, an analysis was performed using a cancer animal model (xenograft) in which human cancer cells were cultured in immunodeficient mice. Specifically, a mixture of 50 mL of Matrigel (Corning, NY, USA) and HCT116 cells (5× 10^6 cells in 50 mL of saline) was subcutaneously injected into the hind legs of 5-week-old nu/nu male nude mice (nu/nu athymic). The tumor volume was analyzed using a caliper [tumor volume=(major axis)×(minor axis)^2/2]. […] At this time, the dose was 100 μl of saline injected at a concentration of 400 μM based on Cy5.5 (40 nmol/100 μl saline).
Fluorescence images were obtained at various times after the intravenous injection.
The isolated cancer tissues were treated with 4% paraformaldehyde, and their moisture content was assessed with sucrose.

[2] = 24 hours after i.v. administration, Cy5.5-labeled

| Compound | PPI inhibition action speed (p53) | viability of HCT116 p53+/+ cells (cancer cell apoptotic effect) (HCT116 p53+/+ cells) | cancer growth (HCT116 cells) | localization to the cancer area (IVIS) ([1]; 40 nmol/100 μl saline i.v.) | removal over time (IVIS) ([1]; 40 nmol/100 μl saline i.v.) | accumulation in cancer tissues (frozen sections) [1, 2] | accumulation in major organs and cancer tissues (ex vivo fluorescence) [1, 2] | fluorescence of tail vein blood over time (in vivo retention) ([1]; after i.v. administration, Cy5.5-labeled) |
| --- | --- | --- | --- | --- | --- | --- | --- | --- |
| COc1cc(C(=O)O)ccc1NC(=O)[C@@H]1N[C@@H](CC(C)(C)C)[C@](C#N)(c2ccc(Cl)cc2F)[C@H]1c1cccc(Cl)c1F [idasanutlin] | three | higher anticancer effect than that of the SdPN (6:4) of Example 8 | significantly inhibited | – | – | – | – | – |
| sulfo-cyanine 5.5 [Cy5.5] | – | – | – | failed to be specifically localized to the cancer area | rapidly removed over time | no significant accumulation | significant accumulation neither in major organ tissues nor cancer tissues | completely eliminated within a short time |

From patent publication US20250177479A1, “DEPSIPEPTIDE-BASED AMPHIPHILIC BULIDING BLOCK TO INHIBIT PROTEIN-PROTEIN INTERACTIONS, NANOSTRUCTURE COMPRISED THEREOF AND USES THEREOF” (INDUSTRY-ACADEMIC COOPERATION FOUNDATION, YONSEI UNIVERSITY, priority 2023, published 2025)
